Literature values, collected in patent publication US9609876B2, “Antimicrobial compositions” (priority 2012, dated 2017).

Key:
[1] = in vivo

Row | SMILES | pH range in which it is stable and maintains its antimicrobial activity | LD50 [1]
1 | CCCCCCCCCCCC(=O)N[C@@H](CCCNC(=N)N)C(=O)OCC.Cl [LAE, N^α-lauroyl-L-arginine ethyl ester monohydrochloride] | 3-7 | 
2 | CC(=O)CCC(=O)O [Levulinic acid] |  | 1850 mg/kg
